This is an account of results in publication PMC9321043, “Synthesis, Structure–Activity Relationships, and Parasitological Profiling of Brussonol Derivatives as New Plasmodium falciparum Inhibitors” (Pharmaceuticals, 2022).

For assay [1], the system named is P. falciparum (3D7 strain). Nature of the assay: In vitro antiplasmodial activity, P. falciparum blood-stage parasites, SYBR Green I. It counts as cell-based, Plasmodium falciparum. Conditions: Plasmodium falciparum, 3D7, 3D7 strain, Table 2 strain panel; read-out: IC50. The protocol: The P. falciparum strains were cultivated in human blood cells (hRBC) O^+, while P. knowlesi was cultivated in rhesus red blood cells (rRBC) as described. P. falciparum complete RPMI (consisting of RPMI-1640, supplemented with 0.2% NaHCO3, 25 mM HEPES (pH 7.4), 11 mM D-glucose, 10 mg/L hypoxanthine, 25 mg/L gentamicin, and 0.5% (m/v) AlbuMAX II). The parasitemias of these cultures were maintained below 10% with 2.5% hematocrit. P. knowlesi complete RPMI (consisting of RPMI-1640 supplemented with 25 mM HEPES, […] hypoxanthine, 0.26% NaHCO3, 10 mg/L gentamicin, and 1% Albumax II). This culture was maintained with RBCs up to 5% hematocrit. The culture medium was changed daily, and all cultures were maintained under a 90% N2/5% CO2/5% O2 gas mixture at 37 °C. All compounds were purchased from Sigma-Aldrich (Cotia, Brazil).
The antiplasmodial activity of brussonol and derivatives was evaluated against P. falciparum blood parasites 3D7(chloroquine-sensitive). The parasites were synchronized through sterile 5% (m/v) D-sorbitol treatment over 10 min at 37 °C for the enrichment of ring stages. Centrifugation 600× g over 5 min was used to pellet the cultures. The parasitemia was determined by microscope analysis of thin blood smears stained with Giemsa 10% (v/v) after fixation with methanol. The initial parasitemia was calculated for 1000 red blood cells (RBCs), and cultures were diluted to 0.5% parasitemia and 2% hematocrit by the addition of the appropriate volumes of blood and medium. A total of 180 µL aliquots of parasites were distributed into 96-well plates followed by the addition of 20 µL of previously prepared aliquots of ten-fold concentrated compounds, the range of concentrations tested was 10–1.53 µM. Negative and positive control wells, which correspond to non-parasitized erythrocytes and parasite cultures in the absence of compounds, were set in parallel. The DMSO concentration was maintained below 0.05% (v/v) for all compounds except for brussonol, which was 0.5%. The plates were incubated for 72 h at 37 °C in a humidified incubator with a gas mixture of 90% N2, 5% O2, and 5% CO2. Each test was performed in duplicates, and the results were compared with the control cultures. Once completed incubation, the culture medium was removed, and the cells were resuspended in 100 µL PBS (116 mM NaCl, 10 mM NaH2PO4, 3 mM KH2PO4) and lysed with 100 µL lysis buffer (20 mM Tris base, 5 mM EDTA, 0.0008% (v/v) Triton X-100, 0.008% (m/v) saponin, pH 8.0) containing 0.002% (v/v) SYBR Green I. Plates were incubated for 30 min at room temperature, and a SpectraMAX Gemini EM plate reader (Molecular Devices Corp., Sunnyvale, CA) was used to determine the fluorescence corresponding to parasitic density (excitation at 485 nm, emission at 535 nm). The half-maximal inhibitory concentration (IC50^Pf) was determined by non-linear regression analysis of the resulting concentration–response curve using the software GraphPad Prism version 8.0.1 for Windows, GraphPad Software, San Diego, California USA, www.graphpad.com, accessed on 3 March 2022”.

Assay [2] deals with P. falciparum TM90C6B strain. Nature of the assay: Resistance assessment, TM90C6B strain. It counts as cell-based. Conditions: Plasmodium falciparum.
The test system of assay [3] is P. falciparum 3D7^r_MMV848 strain. Nature of the assay: Resistance assessment, 3D7r-MMV848 strain. It counts as cell-based. As to conditions: Plasmodium falciparum.
The subject of the next assay is P. falciparum Dd2 strain. Nature of the assay: Resistance assessment, Dd2 strain. It counts as cell-based. As to conditions: Plasmodium falciparum.
The subject of another assay is P. falciparum. Kind of assay: Speed-of-action assay. It counts as cell-based, Plasmodium falciparum. As to conditions: for speed of action: IC50 compared after 24, 48 and 72 h of drug exposure; for time of parasite death (morphological development, pyknotic nuclei): highest concentration evaluated, Giemsa smears at 0, 24, 48, 72 h. The protocol: The speed-of-action assay assesses the inhibitory activity of the tested compounds after 24, 48, and 72 h of drug exposure. […] Moreover, to confirm the speed-of-action, the morphological development of the parasite in parallel with the IC50 assessment was verified. The parasites in the negative control wells developed according to the expected timeline (Figure 5a). […] Brussonol caused parasite death within the first 24 h of incubation as observed for artesunate (Figure 5a).
In this method, three 96-well plates were prepared by adding 180 µL of the parasite’s inoculum with 0.5% parasitemia and 2% hematocrit. A serial dilution of the compounds was added to each plate; the starting concentration for brussonol was 6× IC50, while for artesunate and pyrimethamine (fast- and slow-acting controls, respectively) were 10× IC50. In addition, a positive and negative control, which corresponded to parasite cultures with no addition of inhibitor and non-parasitized erythrocytes, respectively, were used for the parasite’s control growth. Each plate was treated for a different period (24, 48, or 72 h), and the first two plates were washed twice with fresh medium to remove the inhibitor, followed by incubation of 48 and 24 h, respectively. […] A statistical analysis using a one-way ANOVA test was done to compare each time point using GraphPad Prism version 8.0.1 for Windows, GraphPad Software, San Diego, California USA, www.graphpad.com, accessed on 1 February 2022. In parallel, the morphological development of the parasite under the compounds’ pressure was assessed by adding the compounds tested at the highest concentration evaluated. Blood smears of each well were made and stained at time points 0, 24, 48, and 72 h.

The subject of a further assay is P. falciparum K1 strain. Kind of assay: Resistance assessment, K1 strain. It counts as cell-based. As to conditions: Plasmodium falciparum.
For another assay, the system named is hemozoin formation. Nature of the assay: Hemozoin formation inhibition assay. It counts as biochemical. As to conditions: hemin 25 µM, pH 4.8, 4 h, one experiment in triplicate. The protocol:
2. Hemozoin Formation Inhibition Assay
The hemozoin formation inhibition assay was performed as described previously.12 Briefly, serial 1:3 dilutions, in a 96‐well plate, wit h brussonol were made in a final volume of 20 μL in a concentration 10 times higher than the final concentration of the assay. Secondly, 90 μ L of freshly prepared hemin (at a final concentration of 25 μM) solution in 1M NaOAc/HOAc buffer pH 4.8 were added followed by addition of 90 μ L of 5.4 mg/L Tween 20 solution freshly prepared. The plates were let to stand for 4 hours at 37 °C followed by resuspension with multichannel pippete and read at 415 and 630 nm using a SpectraMAX Plus 384 plate reader (Molecular Devices Corp., Sunnyvale, CA).
Due to the absence of enough compound, this experiment wa s performed only once, but with internal triplicate. Chloroquine (CQ) and pyrimethamine (PYR) were used as positive and negative control of inhibition, respectively.
Inhibition (%) = 100 – 100 x [(Aco ntro l – Asample) / (Acontrol - Amin)] Acontrol is the difference of the absorbance at 415 and 630 nm of the negative control (Hemin +, Tween 20 ‐, Compound ‐); Amin is the difference of the absorbance at 415 and 630 nm of the positive control (Hemin +, Tween 20 +, Compound ‐ ); Asample is the difference of the absorbance at 415 and 630 nm of the sample. The hemozoin formation inhibition assay was performed to evaluate if brussonol act inhibiting hemozoin formation in P. falciparum. CQ, which is a well‐known inhibitor of hemozoin […]
Figure S1. Hemozoin formation inhibition assay. Different concentrations of CQ (black triangles), PYR (red squares) and brussonol (blue circles) were incubated with heme in triplicates. Th e absorbance was recorded at 415/630 nm to determine the hemozoin formation inhibition. […]

Assay [4] relates to cytosolic Ca^2+ in P. falciparum. Nature of the assay: [Ca2+]cyt measurements in isolated parasites loaded with Fluo-4AM. It counts as cell-based, Plasmodium falciparum. The protocol: One of the compounds identified in the structural similarity search was the cyclopiazonic acid (CPA) (Figure 8a). […] Because of that, brussonol activity on the modulation of the SERCA pump was investigated. To assess the effect of brussonol on calcium mobilization in P. falciparum intraerythrocytic stages, isolated parasites loaded with Fluo-4-AM were exposed to 10 μM brussonol in MOPS Ca^2+ buffer. […] To verify if the brussonol-elicited [Ca^2+]cyt increment originated from the endoplasmic reticulum (ER), targeting the PfSERCA pump, CPA was added before the addition of brussonol. […] In the brussonol-pretreated parasites, the addition of CPA still increased the cytosolic Ca^2 + level (30 ± 5 nM) (Figure 8d).
Isolated parasites were incubated for 1 h at 37 °C with 5 μM of Fluo-4AM in 1 mL MOPS buffer (116 mM NaCl, 5.4 mM KCl, 0.8 mM MgSO4, 5.5 mM D-glucose, 50 mM MOPS, and 2 mM CaCl2, pH 7.2), with 1 mM probenecid to minimize compartmentalization and extrusion of probe. The parasites were washed three times with the same buffer and transferred to a quartz cuvette. Intracellular calcium was measured continuously using a Hitachi F-7000 spectrofluorimeter (Tokyo, Japan) by measurement of the fluorescence (λex = 488 nm and λem = 530 nm) at 37 °C, under agitation. When indicated, 10 µM of cyclopiazonic acid (CPA) or 10 µM of brussonol were added to the cuvette. Maximal fluorescence (Fmax) was determined after the lysis of with digitonin 0.15% (m/v), and minimal fluorescence (Fmin) was determined by adding 25 mM EGTA in 3 M Tris, pH 8.8, until no further decrease in fluorescence was observed. The cytosolic calcium concentration ([Ca^2+]cyt) was calculated from the fluorescence data (F) using a Kd value of 345 nM using the formula:Ca^2 +cyt = 345 × [(F − Fmin)/(Fmax − F)]
The results (n = 2) were analyzed through One-Way ANOVA with Tukey post-test. All compounds described here were purchased from Sigma-Aldrich (verificar local).

In general, IC50 refers to the concentration that inhibits the measured activity by half.

As for `O=C1C(O)=C([C@H]2CC[C@H](c3ccc(Cl)cc3)CC2)C(=O)c2ccccc21` [atovaquone, reference compound], the concentration for half-maximal inhibition (IC50) in assay [1] was 0.7 ± 0.3 nM; in assay [2], 3000 ± 1000 nM.

As to `C[C@H]1[C@H](OC(=O)CCC(=O)O)O[C@@H]2O[C@@]3(C)CC[C@H]4[C@H](C)CC[C@@H]1[C@@]24OO3` [artesunate], the half-maximal inhibitory concentration (IC50) in assay [3] stood at 13 ± 8 nM; with P. falciparum Dd2 strain it was 11 ± 8 nM; in assay [1], 8 ± 4 nM; in assay [2] it was 6 ± 2 nM; with P. falciparum K1 strain, 7 ± 3 nM. Besides, in the assay on P. falciparum, the speed of action result is “fast-acting inhibitor”. Further, in the assay with P. falciparum, the “time of parasite death (morphological development, pyknotic nuclei)” value is listed as at most 24 h.

Regarding `CCc1nc(N)nc(N)c1-c1ccc(Cl)cc1` [pyrimethamine], the IC50 in the assay on P. falciparum Dd2 strain is above 10000 nM; in assay [1] it was 60 ± 10 nM; in the assay with P. falciparum K1 strain it was above 10000 nM. In addition, in the assay with hemozoin formation, the “hemozoin formation inhibition (in words)” value is “no inhibition profile up to 1.4 mM”. The speed of action entry with P. falciparum is on record as “slow-acting inhibitor”. Also, the “time of parasite death (morphological development, pyknotic nuclei)” value in the assay with P. falciparum is “at the 48 and 72 h time points”.

Take cyclopiazonic acid [reference compound]: the “[Ca^2+]cyt rise in brussonol-pretreated parasites” value in assay [4] (10 µM CPA added after 10 µM brussonol) worked out at 30 ± 5 nM. Further, the “[Ca^2+]cyt rise” value in assay [4] (10 µM compound alone, MOPS Ca^2+ buffer, relative to basal level) is reported as 23 ± 2 nM.
